Reference: ChEMBL document CHEMBL1124129, “Binding of steroids to the progestin and glucocorticoid receptors analyzed by correspondence analysis” (J Med Chem, 1988)

Target: T1, Glucocorticoid receptor (Rattus norvegicus) (UniProt P06536)
T1 sequence (whole entry): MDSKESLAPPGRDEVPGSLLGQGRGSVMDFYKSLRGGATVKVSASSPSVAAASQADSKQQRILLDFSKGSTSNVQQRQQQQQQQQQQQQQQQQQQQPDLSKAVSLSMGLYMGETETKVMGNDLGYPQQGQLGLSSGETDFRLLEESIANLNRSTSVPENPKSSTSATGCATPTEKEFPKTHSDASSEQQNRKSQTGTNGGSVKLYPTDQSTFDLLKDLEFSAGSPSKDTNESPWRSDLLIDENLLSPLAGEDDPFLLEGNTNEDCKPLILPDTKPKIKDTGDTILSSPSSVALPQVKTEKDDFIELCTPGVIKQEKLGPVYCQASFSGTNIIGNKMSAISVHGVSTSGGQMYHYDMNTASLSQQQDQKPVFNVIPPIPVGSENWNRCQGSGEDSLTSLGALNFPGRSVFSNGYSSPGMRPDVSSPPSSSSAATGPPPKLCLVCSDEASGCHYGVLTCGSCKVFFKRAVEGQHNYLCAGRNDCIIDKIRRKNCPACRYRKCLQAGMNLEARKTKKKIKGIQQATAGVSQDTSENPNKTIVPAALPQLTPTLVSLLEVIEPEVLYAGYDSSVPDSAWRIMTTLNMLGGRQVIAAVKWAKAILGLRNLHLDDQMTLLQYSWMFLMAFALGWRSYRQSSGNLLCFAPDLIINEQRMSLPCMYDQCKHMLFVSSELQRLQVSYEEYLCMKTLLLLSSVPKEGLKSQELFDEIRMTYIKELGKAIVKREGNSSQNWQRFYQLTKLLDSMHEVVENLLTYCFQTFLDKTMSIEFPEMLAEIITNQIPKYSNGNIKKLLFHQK
Experiment: Relative binding affinity to glucocorticoid receptor on cytosol fromt hymus at 4 hr

RBA: 270
Compound: CC#C[C@]1(O)CCC2C3CCC4=CC(=O)CCC4=C3C(c3cccs3)CC21C (stereo partly specified)
